According to article PMC11337105, “Identification of 2-(N-aryl-1,2,3-triazol-4-yl) quinoline derivatives as antitubercular agents endowed with InhA inhibitory activity” (Frontiers in Chemistry, 2024):
≈ marks a conversion by molar mass, not a printed value.

Legend:
MTB = conditions: cited from earlier work
M. tuberculosis H37Rv = assay: Antimycobacterial MIC / primary screening, MABA (microplate alamar blue assay); type: cell-based; conditions: Mycobacterium tuberculosis
L929 cells = assay: Cytotoxicity, MTT protocol (ISO 10993-5:2009(E)); type: cell-based; conditions: ratio to MIC against M. tuberculosis
Procedure: This evaluation adhered precisely to international standards (ISO 10993-5:2009(E)), employing L929 cells and the MTT protocol ([Bekier et al., 2021]). The determination of the half maximal inhibitory concentration (IC50) values was carried out for 12 out of the 13 compounds tested, considering the occurrence of derivative precipitation in the growth medium for L929 cells (Table 1). […] For two compounds (5g and 5i), the discriminatory index (IC50/MIC) was identified at the level of 20.

M. abscessus = assay: Antimycobacterial MIC / primary screening, MABA; type: cell-based; conditions: Mycobacteroides abscessus, read-out: MIC M. abscessus
M. bovis BCG = assay: microbe, parasite or virus in culture; type: cell-based; conditions: Mycobacterium tuberculosis variant bovis BCG, read-out: MIC M. bovis BCG
MTB InhA = MTB InhA (Mycobacterium tuberculosis, UniProt P9WGR1); assay: InhA inhibition endpoint assay; type: biochemical; conditions: read-out: IC50 against InhA
Sequence of MTB InhA (P9WGR1 whole entry, looked up): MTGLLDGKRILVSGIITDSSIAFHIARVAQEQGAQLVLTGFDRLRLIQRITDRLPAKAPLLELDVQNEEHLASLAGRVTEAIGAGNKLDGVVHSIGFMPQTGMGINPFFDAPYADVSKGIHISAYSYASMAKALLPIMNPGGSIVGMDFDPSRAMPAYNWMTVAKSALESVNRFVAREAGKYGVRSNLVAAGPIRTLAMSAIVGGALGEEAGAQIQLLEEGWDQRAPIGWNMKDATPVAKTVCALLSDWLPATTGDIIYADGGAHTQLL

SMILES	MIC, tuberculosis (MTB; ref Gill et al., 2008) [mg/L]	MIC (M. tuberculosis H37Rv) [mg/L]	IC50-L929/MIC Mtb (cytotoxicity / discriminatory index) (L929 cells)	MIC (M. abscessus) [mg/L]	melting point [°C]	MIC (M. bovis BCG) [mg/L]	IC50 (MTB InhA) [µM]	MIC, MTB H37Rv strain (MTB; MTB H37Rv, ref Boechat et al., 2011) [mg/L]	MIC against MTB (MTB; ref Quimque et al., 2023)
Fc1cccc(-c2nc3ccccc3n2Cc2cn(-c3ccc(F)cc3F)nn2)c1 [compound VII]	6.25 (≈ 15.4 µM)	–	–	–	–	–	–	–	–
Cc1c(-c2cc(C(=O)O)c3cc(Cl)ccc3n2)nnn1-c1ccccc1 [Compound 5i, 6-Chloro-2-(5-methyl-1-phenyl-1H-1,2,3-triazol-4-yl)benzo [b]pyridine-4-carboxylic acid]	–	15 (≈ 41.1 µM)	20	> 125	> 300	< 125	11.8 ± 0.49	–	–
Cc1c(-c2cc(C(=O)O)c3cc(Cl)ccc3n2)nnn1-c1ccc(Cl)cc1 [Compound 5n, 6-Chloro-2-(1-(4-chlorophenyl)-5-methyl-1H-1,2,3-triazol-4-yl)benzo [b]pyridine-4-carboxylic acid]	–	12.5 (≈ 31.3 µM)	16	> 125	–	< 125	0.72 ± 0.03	–	–
O=C(N/N=C/c1cn(-c2ccc(Cl)cc2)nn1)c1ccncc1 [compound VI]	–	–	–	–	–	–	–	0.62 (≈ 1.9 µM)	–
Cc1c(-c2cc(C(=O)O)c3ccccc3n2)nnn1-c1ccc(Br)cc1 [Compound 5g, 2-(1-(4-Bromophenyl)-5-methyl-1H-1,2,3-triazol-4-yl)benzo [b]pyridine-4-carboxylic acid]	–	15 (≈ 36.7 µM)	20	> 125	228 to 229	< 125	4.13 ± 0.17	–	–
CC(C)c1ccc2nc(-c3ccc4ccc5ccccc5c4c3)cc(C(=O)O)c2c1 [Compound II]	–	–	–	–	–	–	–	–	around 16 μM
NNC(=O)c1ccncc1 [INH, isoniazid, reference compound]	–	0.1 (≈ 0.729 µM)	–	0.1 (≈ 0.729 µM)	–	0.05 (≈ 0.365 µM)	0.24 ± 0.01	–	–
Cc1c(-c2cc(C(=O)O)c3cc(Cl)ccc3n2)nnn1-c1ccc(Br)cc1 [Compound 5o, 2-(1-(4-Bromophenyl)-5-methyl-1H-1,2,3-triazol-4-yl)-6-chlorobenzo [b]pyridine-4-carboxylic acid]	–	15 (≈ 33.8 µM)	10	> 125	> 300	< 125	–	–	–
